US4599352A, “Antineoplastic platinum (IV) complexes and compositions” (priority 1984, dated 1986)

Columns and labels:
[1] = test system: IP-Implanted L1210 Leukemia; assay: Dose-response against IP-implanted L1210 leukemia, IP treatment Days 1, 5 and 9, 30-day test (Table 2); assay type: in vivo, CD2Fl male mice
Procedure, shortened: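 CD2F1 male mice implanted IP with 10^5 cells on Day 0; single IP doses in saline (5% sodium bicarbonate for NSC-271674) on Days 1, 5, 9. Median survival over 30 days (survivors included) as % T/C; Day 5 body-weight difference T−C (g); net log10 tumor-burden change over therapy from ~6.1×10^5 starting cells.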

[2] = test system: SC Implanted L1210 Leukemia; assay: Activity against SC implanted L1210 leukemia following intravenous administration, once daily Days 1-5 (Table 5); assay type: in vivo, CD2Fl male mice; details: IV once daily Days 1-5
[3] = test system: IP L1210; assay: Activity against IP-implanted L1210 leukemia sensitive to cisplatin, 30 day test (Table 3); assay type: in vivo, Female CD2Fl mice
Procedure, shortened: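 CD2F1 mice implanted IP with 10^5 cells on Day 0; compounds given IP as single injections on Days 1, 5 and 9, freshly prepared in saline (5% sodium bicarbonate for NSC-271674). Activity as median survival % T/C over 30 days, Day 5 body-weight difference (T-C) and log10 change in tumor burden.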

[4] = test system: IP-Implanted L1210/Cisplatin; assay: Comparison of isomers: long term survivors and weight differences in treating IP-implanted L1210/Cisplatin (Table 6); assay type: in vivo, mice
From the text: Comparative data for the others are as follows: 27 for trans d, 27 for trans d l and 13 for cis. […] The higher the ratio the more convenient it is to prepare a formulation for intravenous administration to patients which is shown in Table 7.

[5] = test system: IP L1210 leukemia; assay: Mouse optimal (highest tolerated) dose, IP L1210 leukemia, Days 1, 5 and 9 schedule (Table 7); assay type: in vivo
From the text: *IP L1210 leukemia, Days 1, 5 and 9 schedule. Highest tolerated dose in a
least 2 of 3 experiments (i.e,. animal weight difference (testcontrol)

[6] = test system: L1210 and L1210/Cisplatin leukemia; assay: Total number of long-term survivors in Tables 2-4; assay type: in vivo, CD2Fl mice; details: Tables 2-4 summed
From the text: If one summarizes the data in Tables 2-4 by totalling the number of long-term survivors, unexpected differences among the isomers become apparent. For example, the trans l compound produced 30 long-term survivors.

[Cl][Pt]1([Cl])([Cl])([Cl])[NH]C2CCCCC2[NH]1 (stereo not drawn) [trans (d, l), (d,l)-Tetrachloro-trans-1,2-cyclohexanediamine platinum (IV)]
30-Day Survivors/Total ([1]; 1 mg/kg/dose IP): 0/6 | Approx. Log10 Change in Tumor Burden at End of Rx ([1]; 1 mg/kg/dose IP): ~2.9 log10 | Body Weight Difference ([1]; 1 mg/kg/dose IP): -0.5 Grams | Median % T/C ([1]; 1 mg/kg/dose IP): 122% | 30-Day Survivors/Total ([1]; 2 mg/kg/dose IP): 0/6 | Approx. Log10 Change in Tumor Burden at End of Rx ([1]; 2 mg/kg/dose IP): ~2.5 log10 | Body Weight Difference ([1]; 2 mg/kg/dose IP): -1.5 Grams | Median % T/C ([1]; 2 mg/kg/dose IP): 146% | 30-Day Survivors/Total ([1]; 4 mg/kg/dose IP): 1/6 | Approx. Log10 Change in Tumor Burden at End of Rx ([1]; 4 mg/kg/dose IP): ~-0.5 log10 | Body Weight Difference ([1]; 4 mg/kg/dose IP): -1.5 Grams | Median % T/C ([1]; 4 mg/kg/dose IP): 202% | 30-Day Survivors/Total ([1]; 8 mg/kg/dose IP): 4/6 | Approx. Log10 Change in Tumor Burden at End of Rx ([1]; 8 mg/kg/dose IP): ~-5.7 log10 | Body Weight Difference ([1]; 8 mg/kg/dose IP): -1.2 Grams | Median % T/C ([1]; 8 mg/kg/dose IP): 357% | Body Weight Difference ([1]; 8 mg/kg/dose IP, listed as trans dl): less than -4 Grams | 30-Day Survivors/Total ([1]; 16 mg/kg/dose IP): 1/6 | Approx. Log10 Change in Tumor Burden at End of Rx ([1]; 16 mg/kg/dose IP): ~2.6 log10 | Body Weight Difference ([1]; 16 mg/kg/dose IP): -4.6 Grams | Median % T/C ([1]; 16 mg/kg/dose IP): 142% | Optimal dose (dose producing best therapeutic response) ([1]; day 1, 5 and 9 schedule): 8 mg/kg/injection | Optimal Dose [2]: 2.5 mg/kg/inj | 30 Day Survivors/Total ([3]; 1 mg/kg/dose): 0/6 | Approx. Log10 Change in Tumor Burden at End of RX ([3]; 1 mg/kg/dose): ~2.8 log10 | Median % T/C ([3]; 1 mg/kg/dose): 125% | 30 Day Survivors/Total ([3]; 2 mg/kg/dose): 0/6 | Approx. Log10 Change in Tumor Burden at End of RX ([3]; 2 mg/kg/dose): ~2.4 log10 | Median % T/C ([3]; 2 mg/kg/dose): 151% | 30 Day Survivors/Total ([3]; 4 mg/kg/dose): 2/6 | Approx. Log10 Change in Tumor Burden at End of RX ([3]; 4 mg/kg/dose): ~-1.5 log10 | Median % T/C ([3]; 4 mg/kg/dose): 212% | 30 Day Survivors/Total ([3]; 8 mg/kg/dose): 3/6 | Approx. Log10 Change in Tumor Burden at End of RX ([3]; 8 mg/kg/dose): ~-5.9 log10 | Median % T/C ([3]; 8 mg/kg/dose): 348% | 30 Day Survivors/Total ([3]; 16 mg/kg/dose): 1/6 | Median % T/C ([3]; 16 mg/kg/dose): 143% | Total Grams of Weight Difference [4]: -10.0 Grams | Total number of long-term survivors [4]: 12 | Mouse Optimal Dose (highest tolerated dose in at least 2 of 3 experiments) [5]: 8 mg/kg | Total number of long-term survivors [6]: 27
